In patent US20230250098A1 (priority 2021, published 2023):
Entries after “also recorded” stand apart in the source; their conditions may differ. Counter-ions that a name gives are not always drawn.

Legend:
[1] = tested on: δOP KO mice; assay: Two-bottle choice alcohol paradigm in δOP KO mice; type: in vivo, mouse; conditions: male δOP KO mice
[2] = tested on: male, WT mice; assay: Conditioned place preference (brief and extended); conditions: 10 mg·kg^−1; four conditioning sessions each for drug and vehicle
[3] = target: T1, HA-mouse μOP (Mus musculus, UniProt P42866); assay: GloSensor cAMP inhibition assay in transfected HEK cells; type: cell-based; conditions: for cAMP α: efficacy normalized to positive control DAMGO; for IC50 / cAMP pIC50: inhibition of forskolin-induced cAMP
T1 construct: HA (N); expressed in transfected cells; host or cells: HEK cells, transient transfection together with pGloSensor22F

[4] = tested on: WT mice; assay: Locomotor evaluation
[5] = tested on: wildtype mice; assay: Seizure assay (modified racine scale); conditions: 10 mg·kg^−1
[6] = target: μOP (Homo sapiens, UniProt P35372); type: binding; design: membranes isolated; conditions: for Binding pKi / Ki: [3H]DAMGO, CHO membranes; for Ki: read-out: Binding Ki
[7] = tested on: male mice; assay: Tail flick thermal nociception assay; type: in vivo, mouse
[8] = tested on: C57Bl/6 wild-type mice; assay: Two-bottle choice alcohol paradigm (drinking in the dark, 10% ethanol vs water); type: in vivo, mouse
[9] = target: T2, FLAG-mouse δOP (Mus musculus, UniProt P32300); assay: GloSensor cAMP inhibition assay in transfected HEK cells; type: cell-based; conditions: for cAMP α: efficacy normalized to positive control Leu-Enk; for IC50 / cAMP pIC50: inhibition of forskolin-induced cAMP
T2 construct: FLAG (N); expressed in transfected cells; host or cells: HEK cells (HEK-293), transient transfection together with pGloSensor22F

[10] = target: T3, κOP (Homo sapiens, UniProt P41145); type: binding; design: membranes isolated; conditions: for Ki: read-out: Binding Ki
[11] = target: T4, δOP (Homo sapiens, UniProt P41143); type: binding; design: membranes isolated; conditions: for Binding pKi / Ki: [3H]DPDPE, CHO membranes; for Ki: read-out: Binding Ki
[12] = target: T5, FLAG-mouse κOP (Mus musculus, UniProt P33534); type: cell-based; conditions: for IC50: read-out: cAMP IC50
T5 construct: FLAG (N); expressed in transfected cells; host or cells: HEK cells, transient transfection together with pGloSensor22F

[13] = tested on: C57Bl/6 wild-type mice; conditions: cited from earlier work; for alcohol consumption, in words (previous reports): dose not stated
[14] = tested on: WT mice; assay: Accelerating rotarod test; conditions: 30 mg·kg^−1 i.p.
[15] = tested on: δOP KO mice; assay: Accelerating rotarod test in δOP KO mice
[16] = target: T4, δOP; type: cell-based
[17] = target: T3, κOP; type: cell-based
[18] = 30 mg·kg^−1 (7-hydroxypaynantheine s.c., speciociliatine i.p.), WT male mice

T1 sequence (P42866 whole entry): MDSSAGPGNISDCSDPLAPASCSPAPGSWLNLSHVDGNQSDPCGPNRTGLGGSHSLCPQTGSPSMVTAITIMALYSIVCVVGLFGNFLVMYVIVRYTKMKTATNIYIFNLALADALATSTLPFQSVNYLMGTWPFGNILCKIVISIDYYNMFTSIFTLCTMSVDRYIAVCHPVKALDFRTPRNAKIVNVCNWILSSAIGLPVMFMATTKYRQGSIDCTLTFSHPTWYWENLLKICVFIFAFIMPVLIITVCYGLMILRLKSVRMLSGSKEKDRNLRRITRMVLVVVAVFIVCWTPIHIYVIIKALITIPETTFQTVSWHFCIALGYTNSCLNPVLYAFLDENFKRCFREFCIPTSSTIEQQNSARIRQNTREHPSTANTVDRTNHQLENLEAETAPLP
T2 sequence (P32300 whole entry): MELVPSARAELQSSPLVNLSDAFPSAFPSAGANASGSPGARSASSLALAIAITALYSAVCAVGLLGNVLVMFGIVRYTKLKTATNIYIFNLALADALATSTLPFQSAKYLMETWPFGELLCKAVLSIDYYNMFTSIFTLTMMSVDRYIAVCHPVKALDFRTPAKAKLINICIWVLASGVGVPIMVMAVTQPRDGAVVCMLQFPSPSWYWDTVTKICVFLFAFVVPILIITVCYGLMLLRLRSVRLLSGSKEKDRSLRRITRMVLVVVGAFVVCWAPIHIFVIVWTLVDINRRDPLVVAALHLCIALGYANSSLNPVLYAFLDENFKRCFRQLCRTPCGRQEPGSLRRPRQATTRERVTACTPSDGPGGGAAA
T5 sequence (P33534 whole entry): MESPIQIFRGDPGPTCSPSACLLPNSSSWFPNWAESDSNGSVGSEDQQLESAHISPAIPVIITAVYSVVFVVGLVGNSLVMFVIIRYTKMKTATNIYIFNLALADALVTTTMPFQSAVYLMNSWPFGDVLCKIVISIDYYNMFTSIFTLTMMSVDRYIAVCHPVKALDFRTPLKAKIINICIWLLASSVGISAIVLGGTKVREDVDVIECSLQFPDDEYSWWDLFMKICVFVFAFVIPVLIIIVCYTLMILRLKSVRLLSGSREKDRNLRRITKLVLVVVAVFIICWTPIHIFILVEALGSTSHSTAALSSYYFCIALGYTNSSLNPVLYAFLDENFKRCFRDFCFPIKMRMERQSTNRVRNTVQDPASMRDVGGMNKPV
T3 sequence (P41145 whole entry): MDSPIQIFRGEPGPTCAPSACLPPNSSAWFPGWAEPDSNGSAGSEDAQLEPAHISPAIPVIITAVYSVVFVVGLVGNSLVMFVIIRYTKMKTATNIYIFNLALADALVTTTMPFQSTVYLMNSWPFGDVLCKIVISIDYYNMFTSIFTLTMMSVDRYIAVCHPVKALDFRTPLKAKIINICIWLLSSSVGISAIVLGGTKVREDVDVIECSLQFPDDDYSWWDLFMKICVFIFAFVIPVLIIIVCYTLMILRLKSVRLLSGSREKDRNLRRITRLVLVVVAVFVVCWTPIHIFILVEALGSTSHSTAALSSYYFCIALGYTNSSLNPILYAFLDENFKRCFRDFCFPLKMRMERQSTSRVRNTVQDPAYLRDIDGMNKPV
μOP, sequence (P35372 whole entry): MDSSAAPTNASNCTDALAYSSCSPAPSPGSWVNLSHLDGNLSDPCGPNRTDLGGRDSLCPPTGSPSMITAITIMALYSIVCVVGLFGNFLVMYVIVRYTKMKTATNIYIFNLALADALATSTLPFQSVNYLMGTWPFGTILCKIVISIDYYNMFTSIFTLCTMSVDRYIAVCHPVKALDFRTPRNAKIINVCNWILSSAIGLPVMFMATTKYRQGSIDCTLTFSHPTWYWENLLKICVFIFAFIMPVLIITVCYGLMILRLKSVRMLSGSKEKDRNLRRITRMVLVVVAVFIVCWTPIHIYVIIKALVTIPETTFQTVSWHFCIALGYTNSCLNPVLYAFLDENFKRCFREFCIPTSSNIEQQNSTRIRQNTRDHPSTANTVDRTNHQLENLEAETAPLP
T4 sequence (P41143 whole entry): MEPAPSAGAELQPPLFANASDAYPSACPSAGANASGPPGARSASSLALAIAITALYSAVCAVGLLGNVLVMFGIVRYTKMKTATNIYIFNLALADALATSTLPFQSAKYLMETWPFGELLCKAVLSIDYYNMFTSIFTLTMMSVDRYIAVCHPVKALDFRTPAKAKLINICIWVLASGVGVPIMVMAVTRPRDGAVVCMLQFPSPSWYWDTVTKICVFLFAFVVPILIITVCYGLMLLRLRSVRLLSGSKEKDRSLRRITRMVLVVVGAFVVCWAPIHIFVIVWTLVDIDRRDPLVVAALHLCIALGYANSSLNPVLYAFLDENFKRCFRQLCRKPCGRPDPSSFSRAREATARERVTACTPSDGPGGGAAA

CC[C@H]1CN2CC[C@@]3(O)C(=Nc4cccc(OC)c43)[C@@H]2C[C@@H]1/C(=C\OC)C(=O)OC [7OH SPG, 7-hydroxyspeciogynine]
ethanol consumption in δOP KO mice, in words ([1]; 3 mg·kg^−1): did not significantly decrease ethanol consumption; also recorded: alcohol consumption was not significantly altered
ethanol consumption in δOP KO mice, in words ([1]; 10 mg·kg^−1): did not significantly decrease ethanol consumption; also recorded: alcohol consumption was not significantly altered
conditioned place preference, extended protocol [2]: did not develop conditioned place preference
cAMP inhibition at the μOP, in words [3]: lowest potency at the μOP; also recorded: reduced μOP potency
cAMP α [3]: 66 ± 6
IC50 [3]: 2400 nM
cAMP pIC50 [3]: 6.2±0.3
ambulation / locomotor activity ([4]; 10 mg·kg^−1): did not significantly alter ambulation
seizure activity [5]: did not significantly alter ambulation (paired, two-tailed t-test, t=0.7552, df=6, p=0.4787) (FIG. 5B) or induce seizures
μOP affinity, in words [6]: strongest μOP affinity
block of morphine analgesia (antagonist mode) ([7]; 10 mg·kg^−1, then morphine 6 mg·kg^−1 s.c. 10 minutes later): did not produce antinociception (paired, two-tailed t-test, t=0.6193, df=9, p=0.5511) or block morphine analgesia
antinociception (agonist mode) ([7]; 10 mg·kg^−1, 30 minutes after drug): did not produce antinociception
ethanol consumption, in words ([8]; 3 mg·kg^−1 s.c., WT male and female mice): reduced alcohol intake; also recorded: efficacious activity; also recorded: dose-dependently decreased ethanol consumption; also recorded: significantly decreased the percent ethanol consumption
average decrease of ethanol consumption ([8]; 10 mg·kg^−1, WT mice): 1.2 ± 0.2 g/kg
percent reduction of ethanol consumption ([8]; 10 mg·kg^−1, WT mice): 40±7%
ethanol consumption, in words ([8]; 10 mg·kg^−1 s.c., WT mice): reduced alcohol intake; also recorded: dose-dependently decreased ethanol consumption; also recorded: significantly decreased the percent ethanol consumption
cAMP inhibition at the δOP, in words [9]: strongest activator at the δOP
difference in potency at the δOP between 7-hydroxyspeciogynine and 7-hydroxypaynantheine [9]: 10 fold
cAMP α [9]: 76 ± 6
IC50 [9]: 2270 nM
cAMP pIC50 [9]: 5.6 ± 0.1 (6)
Binding pKi [10]: 5.8 ± 0.2 (3)
Ki [10]: 1630 nM
δOP binding, in words [11]: improved binding relative to speciogynine
Binding pKi [11]: 6.3±0.1
Ki [11]: 460 nM
cAMP pIC50 [12]: 5.1 ± 0.3 (3)
cAMP α [12]: 80 ± 20
IC50 [12]: 7710 nM

C=C[C@H]1CN2CC[C@@]3(O)C(=Nc4cccc(OC)c43)[C@@H]2C[C@@H]1/C(=C\OC)C(=O)OC [70H PAYN, 7-Hydroxypaynantheine]
ethanol consumption in δOP KO mice, in words ([1]; 30 mg·kg^−1): did not significantly decrease ethanol consumption; also recorded: alcohol consumption was not significantly altered
cAMP inhibition at the μOP, in words [3]: lowest potency at the μOP; also recorded: reduced μOP potency
cAMP α [3]: 80 ± 40
IC50 [3]: 21800 nM
cAMP pIC50 [3]: 4.7±0.5
Binding pKi [6]: 5.2 ± 0.1 (3)
Ki [6]: 6150 nM
ethanol consumption, in words ([8]; 10 mg·kg^−1 s.c., WT mice, listed as 7-hydroxypaynanthiene): not 10 mg·kg^−1
ethanol consumption, in words [8, 18]: significantly reduce alcohol intake; also recorded: significantly decreased ethanol consumption
ethanol consumption, in words ([8]; 30 mg·kg^−1 (7-hydroxypaynantheine s.c., speciociliatine i.p.), WT male mice, listed as 7-hydroxypaynanthiene): efficacious activity; also recorded: decreased the percent ethanol consumption
average decrease of ethanol consumption ([8]; 30 mg·kg^−1, WT mice): 1.1 ± 0.3 g/kg
percent reduction of ethanol consumption ([8]; 30 mg·kg^−1, WT mice): 40±11%
cAMP α [9]: 70 ± 20
IC50 [9]: 5740 nM
cAMP pIC50 [9]: 5.2 ± 0.3 (5)
Binding pKi [10]: 5.1 ± 0.1 (3)
Ki [10]: 7460 nM
δOP binding, in words [11]: a magnitude weaker in binding the δOP than 7-hydroxyspeciogynine
Binding pKi [11]: 4.9±0.2
Ki [11]: 12700 nM
cAMP inhibition at the κOP, in words [12]: not detected at the tested dose range

COc1ccsc1CNCC[C@@]1(c2ccccn2)CCOC2(CCCC2)C1 [Oliceridine]
alcohol consumption, in words (previous reports) [13]: not decrease alcohol consumption

C=CC1CN2CCC3(Nc4cccc(OC)c4C3=O)C2CC1C(=COC)C(=O)OC (stereo not shown) [PAYN PI, Paynantheine Pseudoindoxyl]
cAMP inhibition at the μOP, in words [3]: lowest potency at the μOP
cAMP α [3]: 60 ± 6
IC50 [3]: 4820 nM
cAMP pIC50 [3]: 5.3 ± 0.2 (4)
Binding pKi [6]: 6.2 ± 0.1 (3)
Ki [6]: 680 nM
Binding pKi [10]: 5.9 ± 0.1 (4)
Ki [10]: 1310 nM
Binding pKi [11]: 6.0 ± 0.1 (3)
Ki [11]: 920 nM

CC[C@@H]1CN2CCc3c([nH]c4cccc(OC)c34)[C@H]2C[C@@H]1/C(=C\OC)C(=O)OC [SPECIO, speciociliatine]
rotarod performance (time spent on the rod), in words [14]: significantly reduced the ability of treated wildtype mice to perform in the rotarod assessment; also recorded: significantly impairs motor incoordination; also recorded: significantly decreased time spent on the rod
time of full recovery on rotarod ([14]; post-injection): 120 min
death and seizures in the rotarod assay ([15]; 30 mg/kg i.p.): one δOP KO mouse died after experiencing severe, level 5-6 seizures
rotarod performance, in words ([15]; 30 mg·kg^−1 i.p.): The same effect was observed in δOP KO mice; also recorded: significantly impairs motor incoordination; also recorded: significantly decreased time spent on the rod
ethanol consumption, in words [8, 18]: significantly decreased ethanol consumption; also recorded: significant and sharp decrease in alcohol consumption
average decrease of ethanol consumption ([8]; 30 mg·kg^−1, WT mice): 2.5 ± 0.3 g/kg
percent reduction of ethanol consumption ([8]; 30 mg·kg^−1, WT mice): 90±3%
β-arrestin2 recruitment, in words [16]: no β-arrestin2 recruitment was detected
β-arrestin2 recruitment, in words [17]: no β-arrestin2 recruitment was detected
Binding pKi [10]: 6.2 ± 0.1 (4)
Ki [10]: 590 nM
δOP binding, in words [11]: displayed binding at the δOP
Binding pKi [11]: 5.4±0.1
Ki [11]: 4340 nM

CC[C@H]1CN2CC[C@]3(Nc4cccc(OC)c4C3=O)[C@@H]2C[C@@H]1/C(=C\OC)C(=O)OC [SPG PI, Speciogynine Pseudoindoxyl]
cAMP α [3]: 58 ± 4
IC50 [3]: 230 nM
cAMP pIC50 [3]: 6.6 ± 0.2 (5)
Binding pKi [6]: 7.1 ± 0.1 (3)
Ki [6]: 77 nM
cAMP α [9]: 80 ± 20
IC50 [9]: 8530 nM
cAMP pIC50 [9]: 5.1 ± 0.3 (4)
Binding pKi [10]: 6.1 ± 0.1 (3)
Ki [10]: 750 nM
Binding pKi [11]: 6.0 ± 0.1 (3)
Ki [11]: 940 nM
cAMP pIC50 [12]: 4.7 ± 0.5 (4)
cAMP α [12]: 80 ± 30
IC50 [12]: 20600 nM

CC[C@H]1CN2CCc3c([nH]c4cccc(OC)c34)[C@@H]2C[C@@H]1/C(=C\OC)C(=O)OC [SPG, speciogynine, reference compound]
alcohol intake, in words ([8]; systemic (i.p.) injection, modified 2-bottle choice, male C57BL/6 mice, FIG. 1): reduce alcohol intake
Binding pKi [10]: 5.4 ± 0.1 (5)
Ki [10]: 3000 nM
Binding pKi [11]: 5.1 ± 0.1 (6)
Ki [11]: 5340 nM

CN1CC[C@]2(c3cccc(O)c3)Cc3nc4ccccc4cc3C[C@H]2C1 [TAN-67]
alcohol consumption, in words (previous reports) [13]: efficaciously reduces alcohol use

C=CCN1CC[C@]23c4c5ccc(O)c4O[C@H]2C(=O)CC[C@@]3(O)[C@H]1C5 [naloxone, naloxone hydrochloride]
block of 7-hydroxymitragynine-induced hyperlocomotion ([4]; dose of naloxone considered to be μOP-selective): completely blocked

Oc1ccc2c3c1O[C@H]1c4[nH]c5ccccc5c4C[C@@]4(O)[C@@H](C2)N(CC2CC2)CC[C@]314 [naltrindole]
alcohol intake, in words (previous reports) ([13]; 10 mg·kg^−1): not decrease alcohol intake

Leu-enkephalin [reference compound]
cAMP α [9]: 100
β-arrestin 2 α ([16]; normalized to positive control Leu-Enk): 100
